Measured values from paper PMC8765437, “GSK3640254 Is a Novel HIV-1 Maturation Inhibitor with an Optimized Virology Profile” (Antimicrobial Agents and Chemotherapy, 2022).
pEC50: −log10 of the molar value. Where two headings read alike, the source gives them in different places.

Test system: NLRepRlucP373S viruses containing Gag SDMs or gag/pr genes from clinical isolates
Experiment: Multiple-cycle replication assay, NLRepRluc reporter viruses in MT-2 cells, luciferase endpoint
Assay type: cell-based, HIV-1
Description: Multiple-cycle assays using recombinant viruses or clinical isolates were used to assess MI antiviral activity as described previously ([10]). pNLRepRlucP373S (the P373S change is in the Gag gene and converts an outlier polymorphism in the NL4-3 gene to the prevalent amino acid in the population) plasmids containing SDMs in Gag or gag/pr regions from clinical isolates were transfected into HEK 293T cells, and the supernatant containing recombinant virus was harvested after 4 to 5 days. Virus was used to infect MT-2 cells in the presence of a 3-fold serially diluted compound at a final dimethyl sulfoxide (DMSO) concentration of 1%. The inocula of the reporter viruses were determined based on the luciferase activity detected on day 4 postinfection. The MOI (ratio of infectious virions to target cells) of reporter-free laboratory strains and clinical isolates was 0.005, as derived from a tissue culture infectious dose study. Clinical isolates or reporter-free viruses were examined in the reporter CEM-NKR-CCR5-Luc cells or PBMCs at MOIs ranging from 0.005 to 0.01. Each infection started with a drug-free preincubation of the cell-virus mixtures, performed at 37°C and 5% CO2 for either 1 h at 2 times the final cell density (reporter viruses) or 1 h (reporter-free laboratory strains) or 3 h (clinical isolates) using cell pellets in 0.5 mL of medium. After preincubation, cell-virus mixtures were added to compound-containing 96-well plates for a final cell density of either 10,000 (MT-2 cells for reporter viruses), 20,000 (MT-2 and PM1 cells for reporter-free laboratory strains), 200,000 (PBMCs for clinical isolates), or 500,000 (CEM-NKR-CCR5-Luc for reporter-free laboratory strains) cells per well. The CEM-NKR-CCR5-Luc cell assay was performed in the presence of Polybrene (10 μg/mL). Virus growth was determined on days 4 to 5 postinfection for reporter variants or days 5 to 11 for the other viruses. The reporter viruses were detected by a luciferase assay according to manufacturer protocols (Brite-Glo luciferase kit [Promega] for CEM-NKR-CCR5-Luc cells and Dual-Luciferase Reporter 1000 assay system [Promega] for the other cells), and luminescence was detected on a Wallac Trilux. The growth of clinical isolates in PBMCs was quantitated by reverse transcriptase activity in a 96-well scintillation proximity assay (SPA). Twenty microliters of culture supernatants was mixed with 40 μL of reaction cocktail (62.5 mM Tris-HCl [pH 7.8], 100 mM KCl, 0.0625% NP-40, 2.5 mM dithiothreitol [DTT], 6.25 mM MgCl2, 1 mM EGTA, 6.25 μg/mL of poly rA, 2.5 μg/mL of streptavidin SPA beads prebound with biotinylated-dT12-18, and 1 μCi of [^3H]TTP). Mixtures were incubated at 37°C for ∼3 h and quenched with 100 μl of 0.25 M EDTA per well. Luminescence was detected on a Wallac Trilux programmed for tritium counting with SPA beads in opaque plates. The growth of the reporter-free laboratory M-tropic strains and clinical isolates was monitored by a p24 enzyme-linked immunosorbent assay (ELISA; PerkinElmer Life Sciences, Waltham, MA) performed on culture supernatants. […] A 1:1,000 dilution of cell supernatant in PBS was generally observed to fall in the dynamic range of the endpoint signal.
Maximal percent inhibition values were calculated as MPI = 100 – (mean signals at the 2 highest concentrations of compound/mean signal of 2 no-drug control wells) × 100.

C=C(C)[C@@H]1CC[C@]2(NCCN3CCS(=O)(=O)CC3)CC[C@]3(C)[C@H](CC[C@@H]4[C@@]5(C)CC=C(c6ccc(C(=O)O)cc6)C(C)(C)[C@@H]5CC[C@]43C)[C@@H]12 [GSK’795, reference compound] was tested, and the EC90 (Human immunodeficiency virus 1, MT2, read-out: PBA EC90, subtype B gag/pr 1000156 (V362I)) was 600 nM, the EC90 (Human immunodeficiency virus 1, MT2, read-out: PBA EC90, subtype B gag/pr 1900120 (V370M)) was 6000 nM and the EC90 (Human immunodeficiency virus 1, MT2, read-out: PBA EC90, subtype B gag/pr 1900140 (V362I)) was 1930 nM. The EC90 (Human immunodeficiency virus 1, MT2, read-out: PBA EC90, subtype C gag/pr 93MW690) was 1370 nM, the EC90 (Human immunodeficiency virus 1, MT2, read-out: PBA EC90, subtype C gag/pr 97ZA003) was 2400 nM and the EC90 (Human immunodeficiency virus 1, MT2, read-out: PBA EC90, subtype C gag/pr 98CN009) was 1870 nM. The EC90 (Human immunodeficiency virus 1, MT2, read-out: PBA EC90, subtype C gag/pr 98IN026) was 70 nM, the EC90 (Human immunodeficiency virus 1, MT2, read-out: PBA EC90, subtype C gag/pr 10215-6) was 12000 nM and the EC90 (Human immunodeficiency virus 1, MT2, read-out: PBA EC90, subtype C gag/pr 11657-3) was 400 nM. The EC90 (Human immunodeficiency virus 1, MT2, read-out: PBA EC90, subtype C gag/pr 20635-4) was 1700 nM, the EC90 (Human immunodeficiency virus 1, MT2, read-out: PBA EC90, subtype C gag/pr 20706-3) was 370 nM and the EC90 (Human immunodeficiency virus 1, MT2, read-out: PBA EC90, subtype C gag/pr 1300495) was 2270 nM. For the same compound, the EC90 (Human immunodeficiency virus 1, MT2, read-out: PBA EC90, subtype C gag/pr 1700141) was 370 nM, the EC90 (Human immunodeficiency virus 1, MT2, read-out: PBA EC90, subtype C gag/pr 1900543) was 280 nM and the EC90 (Human immunodeficiency virus 1, MT2, read-out: PBA EC90: Mean, minilibrary of HIV-1 polymorphisms, Fig. 1B, GSK’795 mean without 3 viruses lacking measurable EC90) was 44800 nM. The pEC50 (Human immunodeficiency virus 1, MT2, subtype B gag/pr 4NRR (Wild-type)) was 9.00, the pEC50 (Human immunodeficiency virus 1, MT2, subtype B gag/pr 28-MDR (Wild-type)) was 8.22 and the pEC50 (Human immunodeficiency virus 1, MT2, subtype B gag/pr 92BR014 (V370M)) was 8.40. For the same compound, the pEC50 (Human immunodeficiency virus 1, MT2, subtype B gag/pr 92BR018 (V, QAΔ)) was 8.52, the pEC50 (Human immunodeficiency virus 1, MT2, subtype B gag/pr 92TH014 (V362I)) was 8.30 and the pEC50 (Human immunodeficiency virus 1, MT2, subtype B gag/pr 92TH026 (V362I)) was 8.00. For the same compound, the pEC50 (Human immunodeficiency virus 1, MT2, subtype B gag/pr 92US072 (V362I)) was 8.52, the pEC50 (Human immunodeficiency virus 1, MT2, subtype B gag/pr 92US729 (Wild-type)) was 9.00 and the pEC50 (Human immunodeficiency virus 1, MT2, subtype B gag/pr 93BR008 (V362I)) was 8.40. The pEC50 (Human immunodeficiency virus 1, MT2, subtype B gag/pr 93BR009 (V370M)) was 8.70, the pEC50 (Human immunodeficiency virus 1, MT2, subtype B gag/pr 93BR017 (V, QAΔ)) was 7.80 and the pEC50 (Human immunodeficiency virus 1, MT2, subtype B gag/pr 93BR022 (V, QAΔ)) was 8.00. For the same compound, the pEC50 (Human immunodeficiency virus 1, MT2, subtype B gag/pr 93BR024 (V362I)) was 7.27, the pEC50 (Human immunodeficiency virus 1, MT2, subtype B gag/pr 93TH0647 (V362I)) was 8.52 and the pEC50 (Human immunodeficiency virus 1, MT2, subtype B gag/pr 93US141 (V362I)) was 8.05. For the same compound, the pEC50 (Human immunodeficiency virus 1, MT2, subtype B gag/pr 93US155 (V370T)) was 8.30, the pEC50 (Human immunodeficiency virus 1, MT2, subtype B gag/pr 411-1-C (Wild-type)) was 9.00 and the pEC50 (Human immunodeficiency virus 1, MT2, subtype B gag/pr 220162 (Wild-type)) was 8.30. It also gave a pEC50 (Human immunodeficiency virus 1, MT2, subtype B gag/pr 400024 (V370M)) of 7.72, a pEC50 (Human immunodeficiency virus 1, MT2, subtype B gag/pr 400051 (V370A)) of 8.70 and a pEC50 (Human immunodeficiency virus 1, MT2, subtype B gag/pr 1000156 (V362I)) of 8.05. It also gave a pEC50 (Human immunodeficiency virus 1, MT2, subtype B gag/pr 1900120 (V370M)) of 8.10, a pEC50 (Human immunodeficiency virus 1, MT2, subtype B gag/pr 1900140 (V362I)) of 8.52 and a pEC50 (Human immunodeficiency virus 1, MT2, subtype C gag/pr 93MW690) of 8.00. It also gave a pEC50 (Human immunodeficiency virus 1, MT2, subtype C gag/pr 97ZA003) of 8.22, a pEC50 (Human immunodeficiency virus 1, MT2, subtype C gag/pr 98CN009) of 7.96 and a pEC50 (Human immunodeficiency virus 1, MT2, subtype C gag/pr 98IN026) of 8.52. It also gave a pEC50 (Human immunodeficiency virus 1, MT2, subtype C gag/pr 10215-6) of 8.15, a pEC50 (Human immunodeficiency virus 1, MT2, subtype C gag/pr 11657-3) of 8.22 and a pEC50 (Human immunodeficiency virus 1, MT2, subtype C gag/pr 20706-3) of 8.40. For the same compound, the pEC50 (Human immunodeficiency virus 1, MT2, subtype C gag/pr 1300495) was 7.66, the pEC50 (Human immunodeficiency virus 1, MT2, subtype C gag/pr 1700141) was 8.10 and the pEC50 (Human immunodeficiency virus 1, MT2, subtype C gag/pr 1900543) was 8.15. It also gave an MPI (SDM A326T/V362I/V370A) of 6%, an MPI (SDM A364V) of 16% and an MPI (SDM R361K/V362I/L363M) of 68%. For the same compound, the MPI (SDM T332S/V362I/prR41G) was 65%, the MPI (SDM V362I/V370A) was 31% and the MPI (SDM V370A) was 84%. It also gave an MPI (SDM Wild type) of 94%, an MPI (SDM ΔV370) of 87% and a pEC50 (read-out: EC50 (range), Subtype B gag/pr viruses, n=24) of 5.85 to 9.00.
